For orientation: Ki means the dissociation constant of the complex between target and ligand, obtained from inhibition or displacement. The low end stands for higher affinity, the high end for lower affinity.

For one assay, the target named is T1, rat EP4 receptor (Rattus norvegicus, UniProt P43114).
T1 construct: expressed in transfected cells; host or cells: HEK293 cells, transient transfection with Lipofectamine 2000; membrane fraction used
T1 sequence (P43114 whole entry): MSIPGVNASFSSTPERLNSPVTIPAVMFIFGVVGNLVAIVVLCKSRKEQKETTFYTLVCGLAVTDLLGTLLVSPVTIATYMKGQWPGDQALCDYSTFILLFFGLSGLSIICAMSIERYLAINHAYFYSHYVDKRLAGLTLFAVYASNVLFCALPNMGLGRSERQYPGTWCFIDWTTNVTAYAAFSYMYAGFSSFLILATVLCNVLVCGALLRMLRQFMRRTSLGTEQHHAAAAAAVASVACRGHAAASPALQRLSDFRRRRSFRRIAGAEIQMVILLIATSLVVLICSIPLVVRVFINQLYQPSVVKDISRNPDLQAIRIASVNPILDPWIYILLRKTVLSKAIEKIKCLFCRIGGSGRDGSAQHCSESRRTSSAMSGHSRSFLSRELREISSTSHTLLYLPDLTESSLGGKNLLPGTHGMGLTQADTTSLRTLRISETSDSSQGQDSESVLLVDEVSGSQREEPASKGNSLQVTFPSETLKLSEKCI
The assay is described as follows: Evaluation test on EP4 receptor affinity in rat ([3H]PGE2 receptor binding test). Conditions: [3H]PGE2 0.3 nM, membrane fraction of rat EP4 expressing HEK293 cells. How it is done:
A rat EP4 receptor cDNA was subcloned into an expression vector (pcDNA3.1-V5-His-topo, manufactured by Invitrogen Corporation) to prepare a rat EP4 expression vector. HEK293 cells were cultured in a collagen type I-treated 15 cm dish (manufactured by Asahi Techno Glass Co., Ltd.) to a confluence of 70%. An Opti-MEM culture medium at 1.2 mL/dish and a transfection reagent (Lipofectamine 2000, manufactured by Invitrogen Corporation) at 60 μL/dish were mixed, followed by being left to stand at room temperature for 5 minutes. Then, the rat EP4 receptor expression vector at 15 μg/dish was added thereto, followed by being left to stand at room temperature for 30 minutes. The liquid mixture of the transfection reagent was added into the dish, followed by culturing for 20 to 24 hours. The cell culture was carried out in a CO2 incubator (37° C., 5% CO2).
The culture medium was removed by suction, 10 mL of cooled PBS was added thereto per 15 cm dish, and the cells were scraped using a cell scraper. After washed with cooled PBS (1,200 rpm, 4° C., 5 minutes), suspended in 6 mL/dish of cooled 20 mM Tris-HCl (pH 7.4; manufactured by Nacalai Tesque Inc., 5 mM EDTA included) and homogenized using a Polytron, the homogenate was centrifuged (26,000 rpm, 20 minutes, 4° C.). The obtained precipitate was resuspended in cooled 20 mM Tris-HCl and homogenized again using a Polytron, and the homogenate was centrifuged (26,000 rpm, 20 minutes, 4° C.). The obtained precipitate was resuspended in 50 mM HEPES (pH 7.5; manufactured by Dojindo Laboratories) at 1 mL per dish, homogenized using a Polytron, and freeze-stored at −80° C. as a membrane fraction. At this time, a part thereof was used for the measurement of the protein concentration. Measurement of the protein concentration was carried out using a Protein assay stain (manufactured by Bio-Rad Laboratories) in accordance with a standard Protocol as appended in duplicate.
[^3H]PGE2 50 μL (final concentration 0.3 nM; manufactured by Perkin Elmer Co., Ltd.), 100 μL (20 μg/well) of the membrane fraction prepared from the rat EP4 expression cell, and 50 μL of a test compound were mixed in a 96-well microplate (manufactured by Sumitomo Bakelite Co., Ltd.), incubated at room temperature for 1 hour, then filtered by suction on a microplate (UniFilter-96 GF/B, manufactured by Perkin Elmer Co., Ltd.) using a cell harvester (FilterMate Harvester, manufactured by Perkin Elmer Co., Ltd.), and washed three times with 300 μL/well of a cooled assay buffer (50 mM HEPES, 10 mM MgCl2). Dilution of [^3H]PGE2 and the membrane fraction was carried out using the assay buffer, and dilution of the test compound and the unlabeled PGE2 was carried out using dimethyl sulfoxide and the assay buffer. The UniFilter-96 GF/B was treated by preliminarily washing twice with 200 μL/well of the cooled assay buffer. The UniFilter-96 GF/B after filtration was dried in a dryer overnight, 50 μL/well of a liquid scintillation cocktail (MicroScint20, manufactured by Perkin Elmer Co., Ltd.) was added thereto, and the radioactivity was then measured using a liquid scintillation counter for a microplate (TopCount, manufactured by Perkin Elmer Co., Ltd.). For measurement of the non-specific binding, an unlabeled PGE2 (final concentration 1 μM; manufactured by Cayman Chemical Company) was added. All of the measurements were carried out in duplicate, and the specific binding amount was determined by subtracting the non-specific binding amount from the total binding amount.
According to the test method as described above, the rat EP4 receptor affinity (Ki) of the compound of the present invention was measured. […] In addition, Ex means Example Compound No.
For the compound `CC(C)c1cccc(OCc2c(Cl)cc(Cl)c(=O)n2CCc2ccc(C(=O)O)cc2)c1` [Example 1, 4-(2-{3,5-dichloro-6-[(3-isopropylphenoxy)methyl]-2-oxopyridin-1(2H)-yl}ethyl)benzoic acid], the Ki amounted to 2.8 nM. Still for that read-out and setting: the same measure for `CCCc1cccc(OCc2c(Cl)cc(Cl)c(=O)n2CCc2ccc(C(=O)O)cc2)c1` [Example 171]: 1.1 nM; for `CCOc1ccccc1CCc1c(Cl)cc(Cl)c(=O)n1CCc1ccc(C(=O)O)cc1` [Example 90]: 6.2 nM.

`CC(C)c1cccc(/C=C/c2c(Cl)cc(Cl)c(=O)n2CCc2ccc(C(=O)O)cc2)c1` [Example 91] had an inhibition constant (Ki) of 9.4 nM. `COc1cccc(COc2c(Br)cc(Cl)cc2CCc2ccc(C(=O)O)cc2)c1` [4-(2-{3-bromo-5-chloro-2-[(3-methoxybenzyl)oxy]phenyl}ethyl)benzoic acid, reference compound] showed an inhibitory constant (Ki) of 27 nM. In the case of `O=C(O)c1ccc(CCn2c(CCc3ccccc3OC(F)(F)F)c(Cl)cc(Cl)c2=O)cc1` [Example 350], the Ki worked out at 19 nM. The compound `COc1cccc(OCc2c(Br)cc(Br)c(=O)n2CCc2ccc(C(=O)O)cc2)c1` [Example 2, 4-(2-{3,5-dibromo-6-[(3-methoxyphenoxy)methyl]-2-oxopyridin-1(2H)-yl}ethyl)benzoic acid] had a Ki of 61 nM. `O=C(O)c1ccc(CCn2c(/C=C/c3ccccc3OC(F)(F)F)c(Cl)cc(Cl)c2=O)cc1` [Example 106]: the affinity, expressed as Ki, was 30 nM. `COc1cccc(/C=C/c2c(Br)cc(Br)c(=O)n2CCc2ccc(C(=O)O)cc2)c1` [Example 4, 4-(2-{3,5-dibromo-6-[(E)-2-(3-methoxyphenyl)vinyl]-2-oxopyridin-1(2H)-yl}ethyl)benzoic acid] displayed a Ki of 7.1 nM. Regarding `CC(C)Oc1ccccc1OCc1c(Cl)cc(Cl)c(=O)n1CCc1ccc(C(=O)O)cc1` [Example 74], the inhibition constant (Ki) worked out at 10 nM. As for `O=C(O)c1ccc(CCn2c(/C=C/c3cccc(OC(F)(F)F)c3)c(Cl)ccc2=O)cc1` [Example 126], the Ki was 4.9 nM. `CCc1cccc(OCc2c(C3CC3)cc(Cl)c(=O)n2CCc2ccc(C(=O)O)cc2)c1` [Example 139] displayed an inhibition constant Ki of 8.2 nM.

As to `O=C(O)c1ccc(CCn2c(CCc3cccc(OC(F)(F)F)c3)c(C3CC3)cc(Cl)c2=O)cc1` [Example 122], the inhibitory constant (Ki) worked out at 12 nM. Take `CCCOc1cccc(/C=C/c2c(Cl)cc(Cl)c(=O)n2CCc2ccc(C(=O)O)cc2)c1` [Example 99]: the affinity corresponds to a Ki of 1.7 nM. Take `O=C(O)c1ccc(CCn2c(/C=C/c3cccc(OC(F)(F)F)c3)c(C3CC3)cc(Cl)c2=O)cc1` [Example 120]: the Ki was 7.9 nM. The same measure, in the same setting: as for `COc1cccc(/C=C/c2c(Br)cc(Br)c(=O)n2CCCCCCC(=O)O)c1` [Example 15], the figure is 35 nM; as for `CCc1cccc(/C=C/c2c(Cl)ccc(=O)n2CCc2ccc(C(=O)O)cc2)c1` [Example 125], 7.5 nM; as for `CCc1cccc(/C=C/c2c(Br)ccc(=O)n2CCc2ccc(C(=O)O)cc2)c1` [Example 124], 4.4 nM.

The test system of a further assay is hindlimb blood flow in anesthetized rat. Put plainly: Hindlimb blood flow increasing action in anesthetized rat. The conditions noted are these: oral, Wistar male rats. The assay is classed as in vivo. How it is done:
Wistar male rats were used. The test compound was orally administered, and after 2 hours, the hindlimb blood was measured using a laser blood flow imaging apparatus (PIM II, manufactured by Integral Corporation). At 20 minutes before the measurement, 60 mg/kg of pentobarbital was intraperitoneally administered to conduct anesthesia.
Regarding `COc1cccc(COc2c(Br)cc(Cl)cc2CCc2ccc(C(=O)O)cc2)c1` [4-(2-{3-bromo-5-chloro-2-[(3-methoxybenzyl)oxy]phenyl}ethyl)benzoic acid, reference compound], the “lowest effective dose causing a blood flow increasing action of 120% or more” value came out at 3 mg/kg.

The values above are taken from US20100179137A1, “PYRIDONE COMPOUND” (priority 2007, published 2010).
